# Reference: paper PMC12888861, “Antibacterial activity of enmetazobactam against Acinetobacter spp.: a molecular dissection of mechanism of action and resistance determinants” (Antimicrobial Agents and Chemotherapy, 2025)
# Where two headings read alike, the source gives them in different places.
# Tested on: A. non-baumannii isolates (n = 87)
# Assay: MIC, broth microdilution (EUCAST), A. non-baumannii isolates
# Format: cell-based, Acinetobacter spp. (non-baumannii)
# Conditions: for MIC: read-out: MIC
# Text: The bacterial strains used in this study comprised 208 clinical isolates from the Spanish National Acinetobacter spp. 2020 Multicenter Collection, which was previously characterized in detail by our research group, including whole-genome sequencing, phylogenetics studies, clonal dynamics, and resistance mechanisms ([2], [29]). Additionally, a collection of A. baumannii ATCC 17978 transformants coding the blaOXA-23, blaOXA-24/40, blaOXA-51, blaOXA-58, blaOXA-143, and blaOXA-201 genes, previously constructed and described by our group ([30]), was used to determine the activity of enmetazobactam against strains carrying the main CHDLs of A. baumannii.
# The antimicrobial susceptibility of the 208 Acinetobacter spp. isolates was assessed using the broth microdilution method, as described in the European Committee on Antimicrobial Susceptibility Testing (EUCAST) v.15 guidelines (http://www.eucast.org/clinical_breakpoints). […] MICs for enmetazobactam alone were assessed as well. […] Subsequently, MIC testing was also conducted with a collection of A. baumannii ATCC 17978 transformants expressing clinically relevant OXA-like carbapenemase genes.
# The A. baumannii ATCC 19606 strain was used as the reference strain in all susceptibility experiments, in duplicate assays. Antibiotics were purchased from Sigma-Aldrich, except enmetazobactam and durlobactam, which were obtained from Advanz Pharma and MedChemExpress, respectively.
# [1] = Acinetobacter, A. non-baumannii isolates (n=87), ETZ fixed 8 mg/L in combinations
smiles,measurement,setting,value
CC1(C)[C@H](C(=O)O)N2C(=O)C[C@H]2S1(=O)=O [sulbactam],MIC,"Acinetobacter nosocomialis, isolate NO-Ab208, Acinetobacter nosocomialis, in combinations ETZ fixed at 8 mg/L",0.5 µg/mL
same,MIC,"Acinetobacter pittii, MBC set, isolate NO-Ab89, A. pittii",0.5 µg/mL
same,MIC,"Acinetobacter pittii, isolate NO-Ab59, Acinetobacter pittii, in combinations ETZ fixed at 8 mg/L",1 µg/mL
same,MIC,"Acinetobacter pittii, isolate NO-Ab66, Acinetobacter pittii, in combinations ETZ fixed at 8 mg/L",1 µg/mL
same,MIC,"Acinetobacter pittii, isolate NO-Ab73, Acinetobacter pittii, in combinations ETZ fixed at 8 mg/L",0.5 µg/mL
same,MIC,"Acinetobacter pittii, isolate NO-Ab75, Acinetobacter pittii, in combinations ETZ fixed at 8 mg/L",1 µg/mL
same,MIC,"Acinetobacter pittii, isolate NO-Ab78, Acinetobacter pittii, in combinations ETZ fixed at 8 mg/L",0.5 µg/mL
same,MIC,"Acinetobacter pittii, isolate NO-Ab82, Acinetobacter pittii, in combinations ETZ fixed at 8 mg/L",0.5 µg/mL
same,MIC,"Acinetobacter pittii, isolate NO-Ab89, Acinetobacter pittii, in combinations ETZ fixed at 8 mg/L",0.5 µg/mL
same,MIC,"Acinetobacter pittii, isolate NO-Ab90, Acinetobacter pittii, in combinations ETZ fixed at 8 mg/L",0.5 µg/mL
same,MIC,"Acinetobacter pittii, isolate NO-Ab97, Acinetobacter pittii, in combinations ETZ fixed at 8 mg/L",1 µg/mL
same,MIC,"Acinetobacter pittii, isolate NO-Ab105, Acinetobacter pittii, in combinations ETZ fixed at 8 mg/L",1 µg/mL
same,MIC,"Acinetobacter pittii, isolate NO-Ab106, Acinetobacter pittii, in combinations ETZ fixed at 8 mg/L",0.5 µg/mL
same,MIC,"Acinetobacter pittii, isolate NO-Ab107, Acinetobacter pittii, in combinations ETZ fixed at 8 mg/L",0.5 µg/mL
same,MIC,"Acinetobacter pittii, isolate NO-Ab111, Acinetobacter pittii, in combinations ETZ fixed at 8 mg/L",1 µg/mL
same,MIC,"Acinetobacter pittii, isolate NO-Ab113, Acinetobacter pittii, in combinations ETZ fixed at 8 mg/L",1 µg/mL
same,MIC,"Acinetobacter pittii, isolate NO-Ab118, Acinetobacter pittii, in combinations ETZ fixed at 8 mg/L",2 µg/mL
same,MIC,"Acinetobacter pittii, isolate NO-Ab135, Acinetobacter pittii, in combinations ETZ fixed at 8 mg/L",0.5 µg/mL
same,MIC,"Acinetobacter pittii, isolate NO-Ab145, Acinetobacter pittii, in combinations ETZ fixed at 8 mg/L",1 µg/mL
same,MIC,"Acinetobacter pittii, isolate NO-Ab151, Acinetobacter pittii, in combinations ETZ fixed at 8 mg/L",2 µg/mL
same,MIC,"Acinetobacter pittii, isolate NO-Ab154, Acinetobacter pittii, in combinations ETZ fixed at 8 mg/L",0.5 µg/mL
same,MIC,"Acinetobacter pittii, isolate NO-Ab157, Acinetobacter pittii, in combinations ETZ fixed at 8 mg/L",1 µg/mL
same,MIC,"Acinetobacter pittii, isolate NO-Ab162, Acinetobacter pittii, in combinations ETZ fixed at 8 mg/L",0.5 µg/mL
same,MIC,"Acinetobacter pittii, isolate NO-Ab164, Acinetobacter pittii, in combinations ETZ fixed at 8 mg/L",0.5 µg/mL
same,MIC,"Acinetobacter pittii, isolate NO-Ab178, Acinetobacter pittii, in combinations ETZ fixed at 8 mg/L",0.5 µg/mL
same,MIC,"Acinetobacter pittii, isolate NO-Ab197, Acinetobacter pittii, in combinations ETZ fixed at 8 mg/L",0.5 µg/mL
same,MIC,"Acinetobacter proteolyticus, isolate NO-Ab99, Acinetobacter proteolyticus, in combinations ETZ fixed at 8 mg/L",1 µg/mL
same,MIC,"Acinetobacter proteolyticus, isolate NO-Ab102, Acinetobacter proteolyticus, in combinations ETZ fixed at 8 mg/L",1 µg/mL
same,MIC,"Acinetobacter proteolyticus, isolate NO-Ab210, Acinetobacter proteolyticus, in combinations ETZ fixed at 8 mg/L",0.25 µg/mL
same,MIC,"Acinetobacter radioresistens, isolate NO-Ab175, Acinetobacter radioresistens, in combinations ETZ fixed at 8 mg/L",1 µg/mL
same,MIC,"Acinetobacter radioresistens, isolate NO-Ab215, Acinetobacter radioresistens, in combinations ETZ fixed at 8 mg/L",0.25 µg/mL
same,MIC,"Acinetobacter ursingii, isolate NO-Ab3, Acinetobacter ursingii, in combinations ETZ fixed at 8 mg/L",0.25 µg/mL
same,MIC,"Acinetobacter ursingii, isolate NO-Ab64, Acinetobacter ursingii, in combinations ETZ fixed at 8 mg/L",1 µg/mL
same,MIC,"Acinetobacter ursingii, isolate NO-Ab87, Acinetobacter ursingii, in combinations ETZ fixed at 8 mg/L",0.12 µg/mL
same,MIC,"Acinetobacter ursingii, isolate NO-Ab103, Acinetobacter ursingii, in combinations ETZ fixed at 8 mg/L",0.5 µg/mL
same,MIC,"Acinetobacter ursingii, isolate NO-Ab119, Acinetobacter ursingii, in combinations ETZ fixed at 8 mg/L",0.5 µg/mL
same,MIC,"Acinetobacter ursingii, isolate NO-Ab120, Acinetobacter ursingii, in combinations ETZ fixed at 8 mg/L",0.5 µg/mL
same,MIC,"Acinetobacter ursingii, isolate NO-Ab123, Acinetobacter ursingii, in combinations ETZ fixed at 8 mg/L",2 µg/mL
same,MIC,"Acinetobacter ursingii, isolate NO-Ab126, Acinetobacter ursingii, in combinations ETZ fixed at 8 mg/L",1 µg/mL
same,MIC,"Acinetobacter ursingii, isolate NO-Ab147, Acinetobacter ursingii, in combinations ETZ fixed at 8 mg/L",2 µg/mL
same,MIC,"Acinetobacter ursingii, isolate NO-Ab155, Acinetobacter ursingii, in combinations ETZ fixed at 8 mg/L",1 µg/mL
same,MIC,"Acinetobacter ursingii, isolate NO-Ab165, Acinetobacter ursingii, in combinations ETZ fixed at 8 mg/L",1 µg/mL
same,MIC,"Acinetobacter ursingii, isolate NO-Ab166, Acinetobacter ursingii, in combinations ETZ fixed at 8 mg/L",0.25 µg/mL
same,MIC,"Acinetobacter ursingii, isolate NO-Ab214, Acinetobacter ursingii, in combinations ETZ fixed at 8 mg/L",≤ 0.06 µg/mL
same,MIC,"Acinetobacter ursingii, isolate NO-Ab221, Acinetobacter ursingii, in combinations ETZ fixed at 8 mg/L",0.5 µg/mL
same,MIC,"Acinetobacter ursingii, isolate NO-Ab222, Acinetobacter ursingii, in combinations ETZ fixed at 8 mg/L",0.5 µg/mL
same,MIC,"Acinetobacter, MBC set, isolate NO-Ab84, A. bereziniae",1 µg/mL
same,MIC,"Acinetobacter, MBC set, isolate NO-Ab88, A. dijkshoorniae",0.5 µg/mL
same,MIC,"Acinetobacter, isolate NO-Ab146, Acinetobacter iwoffii, in combinations ETZ fixed at 8 mg/L",2 µg/mL
same,MIC,"Acinetobacter, isolate NO-Ab159, Acinetobacter iwoffii, in combinations ETZ fixed at 8 mg/L",0.5 µg/mL
same,MIC50,[1],1 µg/mL
same,MIC90,[1],2 µg/mL
